Data reported in US7163689B2, “Intravenous valproate for acute treatment of migraine headache” (priority 1999, dated 2007).
Values joined by “and” are separate entries in the source; they are usually repeats but may differ in a detail not shown here. Equal values may be shown once.

Legend:
[1] = tested on: patients with moderate to severe headaches of 24–72 hours duration; test: Expanded study: IV VPA vs DHE with metoclopramide IM, acute migraine headache (Example 2); assay type: in vivo, human; details: for % Headache Relief: 10 patients per group; for Headache Severity / Nausea/vomiting / Phonophobia / Photophobia: individual patient; for Headache Severity: grade 0-3; for Nausea/vomiting / Phonophobia / Photophobia: presence
Protocol: This Example describes an expanded study and analysis of the effectiveness of intravenous VPA for the treatment of acute migraine headache of significant duration. Patient data from the pilot study described in Example 1 has been incorporated and further analyzed in addition to new patient data. • Design. […] Patients alternately received intravenous VPA 500 mgs over 15–30 minutes, or dihydroergotamine (“DHE”) 1 mg with metoclopramide 10 mgs intramuscularly (“IM”). Age ranged from 22 to 73 years. Patients rated severity of headache, presence or absence of nausea, photophobia, and phonophobia at 1, 2 and 4 hrs. Table V and Table VI. • Results. In the 10 patients receiving DHE and metoclopramide, 40% had headache relief at 1 hour, 50% at 2 hours, 60% at 4 hours. The percent with nausea at 0, 1, 2, and 4 hours was 60%, 10%, 20%, 30% respectively, photophobia at 0, 1, 2, and 4 hours 100%, 50%, 50%, 40% respectively, phonophobia at 0, 1, 2, and 4 hours 80%, 30%, 50%, 40% respectively. In the 10 patients receiving i.v. VPA, 60% had headache relief at 1 hour, 70% at 2 hours, 70% at 4 hours, the percent with nausea at 0, 1, 2, and 4 hours was 70%, 30% 30%, 20% respectively, photophobia at 0, 1, 2, and 4 hours was 100%, 40%, 40%, 30% respectively, and phonophobia at 0, 1, 2, and 4 hours was 90%, 40%, 40%, 30% respectively. Table VII. • Conclusions. The results of the present study indicate that intravenous VPA is at least as efficacious as DHE for abortive treatment of acute migraine. Accordingly, intravenous VPA offers a treatment option for migraine headache patients who have recently used a triptan or DHE without the risk of drug-drug interaction or cardiovascular complications.

[2] = tested on: patients with moderate to severe headaches of 24–72 hours duration; test: as above; assay type: in vivo, human; details: 24-h
acute migraine headache = details: at 2 hours after administration; cited from earlier work

With `CN1C[C@H](C(=O)N[C@]2(C)O[C@@]3(O)[C@@H]4CCCN4C(=O)[C@H](Cc4ccccc4)N3C2=O)C[C@@H]2c3cccc4[nH]cc(c34)C[C@H]21` [DHE, dihydroergotamine] the “% experiencing Nausea” value ([1]; 0-h (baseline)) was 60%, the “% experiencing Phonophobia” value ([1]; 0-h (baseline)) was 80% and the “% experiencing Photophobia” value ([1]; 0-h (baseline)) was 100%. The “% experiencing Nausea” value ([1]; 1-h) was 10%, the “% experiencing Phonophobia” value ([1]; 1-h) was 30% and the “% experiencing Photophobia” value ([1]; 1-h) was 50%. The “% experiencing Nausea” value ([1]; 2-h) was 20%, the “% experiencing Phonophobia” value ([1]; 2-h) was 50% and the “% experiencing Photophobia” value ([1]; 2-h) was 50%. For the same compound, the “% experiencing Nausea” value ([1]; 4-h) was 30%, the “% experiencing Phonophobia” value ([1]; 4-h) was 40% and the “% experiencing Photophobia” value ([1]; 4-h) was 40%. For the same compound, the “% Headache Relief” value ([1]; 1-h) was 40%, the “% Headache Relief” value ([1]; 2-h) was 50% and the “% Headache Relief” value ([1]; 4-h) was 60%. The “% Headache Relief” value ([1]; 24-h) was 90%, the “% experiencing Nausea” value ([1]; 24-h) was 10% and the “% experiencing Phonophobia” value ([1]; 24-h) was 10%. For the same compound, the “Headache Severity” value ([1]; 0-h (baseline), Depacon IV 500 mg or DHE 1 mg IM + Reglan 10 mg IM) was 2 (4×) and 3 (6×), the “Headache Severity” value ([1]; 1-h) was 3 (2×) and 0 (4×) and 2 (4×) and the “Headache Severity” value ([1]; 2-h) was 3 (2×) and 0 (4×) and 2 (3×) and 1. The “Headache Severity” value ([1]; 4-h) was 3 (2×) and 1 (2×) and 0 (4×) and 2 (2×), the “Headache Severity” value ([1]; 24-h) was 1 (6×) and 2 and 0 (3×) and the Nausea/vomiting ([1]; 0-h (baseline)) was 0. It also gave a Phonophobia ([1]; 0-h (baseline)) of 0, a Nausea/vomiting ([1]; 1-h) of 0 and a Phonophobia ([1]; 1-h) of 0. It also gave a Photophobia ([1]; 1-h) of 0, a Nausea/vomiting ([1]; 2-h) of 0 and a Phonophobia ([1]; 2-h) of 0. The Photophobia ([1]; 2-h) was 0, the Nausea/vomiting ([1]; 4-h) was 0 and the Phonophobia ([1]; 4-h) was 0. For the same compound, the Photophobia ([1]; 4-h) was 0, the Nausea/vomiting ([1]; 24-h) was 0 and the Phonophobia ([1]; 24-h) was 0. The “% experiencing Photophobia” value [2] was 20%, the Photophobia ([2]; individual patient, presence) was 0 and the “subjects with good relief of acute migraine headache” value (acute migraine headache) was 70–80%.
In the case of `CCCC(CCC)C(=O)[O-].[Na+]` [Depacon, valproate sodium], the “% experiencing Nausea” value ([1]; 0-h (baseline)) was 70%, the “% experiencing Phonophobia” value ([1]; 0-h (baseline)) was 90% and the “% experiencing Photophobia” value ([1]; 0-h (baseline)) was 100%. For the same compound, the “% experiencing Nausea” value ([1]; 1-h) was 30%, the “% experiencing Phonophobia” value ([1]; 1-h) was 40% and the “% experiencing Photophobia” value ([1]; 1-h) was 40%. The “% experiencing Nausea” value ([1]; 2-h) was 30%, the “% experiencing Phonophobia” value ([1]; 2-h) was 40% and the “% experiencing Photophobia” value ([1]; 2-h) was 40%. The “% experiencing Nausea” value ([1]; 4-h) was 20%, the “% experiencing Phonophobia” value ([1]; 4-h) was 30% and the “% experiencing Photophobia” value ([1]; 4-h) was 30%. For the same compound, the “% Headache Relief” value ([1]; 1-h) was 60%, the “% Headache Relief” value ([1]; 2-h) was 70% and the “% Headache Relief” value ([1]; 4-h) was 70%. For the same compound, the “% Headache Relief” value ([1]; 24-h) was 50%, the “% experiencing Nausea” value ([1]; 24-h) was 40% and the “% experiencing Phonophobia” value ([1]; 24-h) was 60%. The “Headache Severity” value ([1]; 0-h (baseline), Depacon IV 500 mg or DHE 1 mg IM + Reglan 10 mg IM, sodium) was 3 (5×) and 2 (5×), the “Headache Severity” value ([1]; 1-h, sodium) was 1 (4×) and 0 (2×) and 2 (2×) and 3 (2×) and the “Headache Severity” value ([1]; 2-h, sodium) was 1 (6×) and 2 (3×) and 0. The “Headache Severity” value ([1]; 4-h, sodium) was 0 (3×) and 1 (4×) and 2 (2×) and 3, the “Headache Severity” value ([1]; 24-h, sodium) was 1 (3×) and 2 (4×) and 3 and 0 (2×) and the Nausea/vomiting ([1]; 0-h (baseline), sodium) was 0. The Phonophobia ([1]; 0-h (baseline), sodium) was 0, the Nausea/vomiting ([1]; 1-h, sodium) was 0 and the Phonophobia ([1]; 1-h, sodium) was 0. The Photophobia ([1]; 1-h, sodium) was 0, the Nausea/vomiting ([1]; 2-h, sodium) was 0 and the Phonophobia ([1]; 2-h, sodium) was 0. It also gave a Photophobia ([1]; 2-h, sodium) of 0, a Nausea/vomiting ([1]; 4-h, sodium) of 0 and a Phonophobia ([1]; 4-h, sodium) of 0. It also gave a Photophobia ([1]; 4-h, sodium) of 0, a Nausea/vomiting ([1]; 24-h, sodium) of 0 and a Phonophobia ([1]; 24-h, sodium) of 0. For the same compound, the Photophobia ([1]; 24-h, sodium) was 0 and the “% experiencing Photophobia” value [2] was 60%.
